Experimental data published in BigSolDB 2.1.

Cc1nc2n(c(=O)c1CCN1CCC(c3noc4cc(F)ccc34)CC1)CCCC2
solubility (mole fraction)
Details | 278.15 K | 283.15 K | 288.15 K | 293.15 K | 298.15 K | 303.15 K | 308.15 K | 313.15 K | 318.15 K | 323.15 K
in acetone | 0.00085 | 0.00095 | 0.00127 | 0.00143 | 0.00175 | 0.00219 | 0.00284 | 0.00336 | 0.00417 | 0.00507
in cumene | 0.00122 | 0.00147 | 0.00207 | 0.00219 | 0.0026 | 0.00309 | 0.00376 | 0.00481 | 0.00552 | 0.0066
in ethanol | 0.00096 | 0.00108 | 0.00131 | 0.00153 | 0.00201 | 0.00248 | 0.0033 | 0.00415 | 0.0051 | 0.00677
in ethyl acetate | 0.00116 | 0.00128 | 0.00167 | 0.00185 | 0.00216 | 0.00263 | 0.00331 | 0.00397 | 0.00485 | 0.0058
in isopropanol | 0.00036 | 0.00046 | 0.0006 | 0.0007 | 0.00103 | 0.00136 | 0.00203 | 0.00253 | 0.0032 | 0.00447
in methanol | 0.00202 | 0.0023 | 0.00272 | 0.00329 | 0.00396 | 0.00487 | 0.00615 | 0.0077 | 0.0099 | 0.0128
in n-butanol | 0.00152 | 0.00173 | 0.0022 | 0.00263 | 0.00347 | 0.00443 | 0.00593 | 0.00753 | 0.00963 | 0.0124
in n-propanol | 0.00139 | 0.00155 | 0.00197 | 0.00238 | 0.00305 | 0.00381 | 0.00517 | 0.00651 | 0.00839 | 0.0109
in toluene | 0.0038 | 0.00418 | 0.00521 | 0.00559 | 0.00667 | 0.008 | 0.00998 | 0.0117 | 0.014 | 0.0167
